Target: T1, human recombinant LPA1 expressed in CHO cells (Homo sapiens, UniProt Q92633)
T1 construct: expressed in transfected cells; host or cells: CHO cells (CHO-hLPA1 cell line)
Test: FLIPR calcium mobilization assay, LPA1 antagonism in CHO-hLPA1 cells
Assay type: cell-based
Conditions: inhibition of LPA EC80 Ca2+ response, 30 min pre-incubation, expressed as range of activity
Summary of the method: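 CHO-hLPA1 cells loaded with 5 μM Cal-520 AM plus 2.5 mM probenecid, 30 min at 37 °C, then pre-incubated 30 min at 37 °C with antagonist (11-point CRC, 0.5% DMSO final) before LPA at EC80. Baseline-subtracted peak fluorescence normalised to % inhibition; pIC50 from four-parameter logistic fit.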

T1 sequence (Q92633 whole entry): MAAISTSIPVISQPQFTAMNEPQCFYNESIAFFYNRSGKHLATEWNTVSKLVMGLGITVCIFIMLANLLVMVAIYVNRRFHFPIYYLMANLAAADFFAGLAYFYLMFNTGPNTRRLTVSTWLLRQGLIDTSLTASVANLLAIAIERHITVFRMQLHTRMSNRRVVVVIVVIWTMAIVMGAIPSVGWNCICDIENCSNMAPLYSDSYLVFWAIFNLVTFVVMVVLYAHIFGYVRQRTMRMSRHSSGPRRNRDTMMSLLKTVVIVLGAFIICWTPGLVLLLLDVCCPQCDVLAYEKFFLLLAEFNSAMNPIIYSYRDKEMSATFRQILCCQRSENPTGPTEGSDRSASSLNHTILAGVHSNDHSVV

Cc1nc(-c2onc(C)c2NS(=O)(=O)CCOc2ccc(F)cc2)ccc1OC[C@H]1CCCC[C@@H]1C(=O)O [Compound 55, (1S,2S)-2-(((6-(4-((2-(4-fluorophenoxy)ethyl)sulfonamido)-3-methylisoxazol-5-yl)-2-methylpyridin-3-yl)oxy)methyl)cyclohexane-1-carboxylic acid]
IC50: < 50 nM

Cc1nc(-c2onc(C)c2NS(=O)(=O)c2ccccc2)ccc1OC[C@H]1CCCC[C@@H]1C(=O)O [Compound 56, (1S,2S)-2-(((2-methyl-6-(3-methyl-4-(phenylsulfonamido)isoxazol-5-yl)pyridin-3-yl)oxy)methyl)cyclohexane-1-carboxylic acid]
IC50: 250 to 600 nM

Cc1nc(-c2onc(C)c2NS(=O)(=O)CCc2ccccc2)ccc1OC[C@H]1CCCC[C@@H]1C(=O)O [Compound 57, (1S,2S)-2-(((2-methyl-6-(3-methyl-4-((2-phenylethyl)sulfonamido)isoxazol-5-yl)pyridin-3-yl)oxy)methyl)cyclohexane-1-carboxylic acid]
IC50: < 50 nM

Cc1nc(-c2cnn(C)c2NC(=O)O[C@H](C)c2ccccc2Cl)ccc1OC[C@H]1CCCC[C@@H]1C(=O)O [Compound 58, (1S,2S)-2-(((6-(5-((((R)-1-(2-chlorophenyl)ethoxy)carbonyl)amino)-1-methyl-1H-pyrazol-4-yl)-2-methylpyridin-3-yl)oxy)methyl)cyclohexane-1-carboxylic acid]
IC50: < 50 nM

Cc1noc(-c2ccc(OC[C@H]3CCCC[C@@H]3C(=O)O)cc2)c1NC(=O)O[C@H](C)c1cccnc1 [Compound 59, (1S,2S)-2-((4-(3-methyl-4-((((R)-1-(pyridin-3-yl)ethoxy)carbonyl)amino)isoxazol-5-yl)phenoxy)methyl)cyclohexane-1-carboxylic acid]
IC50: 50 to 250 nM

Cc1nc(-c2cnn(C)c2CNc2nccc(-c3ccccc3)n2)ccc1OC[C@H]1CCCC[C@@H]1C(=O)O [Compound 61, (1S,2S)-2-(((2-methyl-6-(1-methyl-5-(((4-phenylpyrimidin-2-yl)amino)methyl)-1H-pyrazol-4-yl)pyridin-3-yl)oxy)methyl)cyclohexane-1-carboxylic acid]
IC50: < 50 nM

Cc1nc(-c2nnn(C)c2CNC(=O)OCc2ccccc2)ccc1OC[C@H]1CCCC[C@@H]1C(=O)O [Compound 62, (1S,2S)-2-(((6-(5-((((benzyloxy)carbonyl)amino)methyl)-1-methyl-1H-1,2,3-triazol-4-yl)-2-methylpyridin-3-yl)oxy)methyl)cyclohexane-1-carboxylic acid]
IC50: < 50 nM

Cc1nc(-c2nnn(C)c2CNC(=O)O[C@H](C)c2cccnc2Cl)ccc1OC[C@H]1CCCC[C@@H]1C(=O)O [Compound 63, (1S,2S)-2-(((6-(5-(((((R)-1-(2-chloropyridin-3-yl)ethoxy)carbonyl)amino)methyl)-1-methyl-1H-1,2,3-triazol-4-yl)-2-methylpyridin-3-yl)oxy)methyl)cyclohexane-1-carboxylic acid]
IC50: < 50 nM

Cc1nc(-c2nnn(C)c2CNC(=O)OCc2cccnc2Cl)ccc1OC[C@H]1CCCC[C@@H]1C(=O)O [Compound 64, (1S,2S)-2-(((6-(5-(((((2-chloropyridin-3-yl)methoxy)carbonyl)amino)methyl)-1-methyl-1H-1,2,3-triazol-4-yl)-2-methylpyridin-3-yl)oxy)methyl)cyclohexane-1-carboxylic acid]
IC50: 50 to 250 nM

Cc1nc(-c2nnn(C)c2CNc2nccc(-c3cnccn3)n2)ccc1OC[C@H]1CCCC[C@@H]1C(=O)O [Compound 65, (1S,2S)-2-(((2-methyl-6-(1-methyl-5-(((4-(pyrazin-2-yl)pyrimidin-2-yl)amino)methyl)-1H-1,2,3-triazol-4-yl)pyridin-3-yl)oxy)methyl)cyclohexane-1-carboxylic acid]
IC50: < 50 nM

Cc1nc(-c2nnn(C)c2CNc2nccc(OC(C)C)n2)ccc1OC[C@H]1CCCC[C@@H]1C(=O)O [Compound 66, (1S,2S)-2-(((6-(5-(((4-isopropoxypyrimidin-2-yl)amino)methyl)-1-methyl-1H-1,2,3-triazol-4-yl)-2-methylpyridin-3-yl)oxy)methyl)cyclohexane-1-carboxylic acid]
IC50: < 50 nM

CCC[C@@H](C)OC(=O)Nc1c(-c2ccc(OC[C@H]3CCCC[C@@H]3C(=O)O)c(C)n2)nnn1C [Compound 68, (1S,2S)-2-(((2-methyl-6-(1-methyl-5-(((((R)-pentan-2-yl)oxy)carbonyl)amino)-1H-1,2,3-triazol-4-yl)pyridin-3-yl)oxy)methyl)cyclohexane-1-carboxylic acid]
IC50: < 50 nM

Cc1nc(-c2nnn(C)c2NC(=O)O[C@H](C)c2ccccc2Cl)ccc1OC[C@H]1CCCC[C@@H]1C(=O)O [Compound 69]
IC50: < 50 nM

CCC[C@@H](C)OC(=O)Nc1c(C)noc1-c1ccc(OC[C@H]2CCCC[C@@H]2C(=O)O)c(C)n1 [Compound 70]
IC50: < 50 nM

Cc1nc(-c2nnn(C)c2Nc2cncc(OC(C)C)n2)ccc1OC[C@H]1CCCC[C@@H]1C(=O)O [Compound 71, (1S,2S)-2-(((6-(5-((6-isopropoxypyrazin-2-yl)amino)-1-methyl-1H-1,2,3-triazol-4-yl)-2-methylpyridin-3-yl)oxy)methyl)cyclohexane-1-carboxylic acid]
IC50: < 50 nM

CCOc1cncc(Nc2c(-c3ccc(OC[C@H]4CCCC[C@@H]4C(=O)O)c(C)n3)nnn2C)n1 [Compound 72, (1S,2S)-2-(((6-(5-((6-ethoxypyrazin-2-yl)amino)-1-methyl-1H-1,2,3-triazol-4-y1)-2-methylpyridin-3-yl)oxy)methyl)cyclohexane-1-carboxylic acid]
IC50: 50 to 250 nM

Cc1nc(-c2nnn(C)c2CNc2cncc(OC(C)C)n2)ccc1OC[C@H]1CCCC[C@@H]1C(=O)O [Compound 73]
IC50: 50 to 250 nM

Cc1nc(-c2onc(C)c2COC(=O)N(C)C2CCCC2)ccc1OC[C@H]1CCCC[C@@H]1C(=O)O [Compound 74, (1S,2S)-2-(((6-(4-(((cyclopentyl(methyl)carbamoyl)oxy)methyl)-3-methylisoxazol-5-yl)-2-methylpyridin-3-yl)oxy)methyl)cyclohexane-1-carboxylic acid]
IC50: < 50 nM

CCCN(C)C(=O)OCc1c(C)noc1-c1ccc(OC[C@H]2CCCC[C@@H]2C(=O)O)c(C)n1 [Compound 75, (1S,2S)-2-(((2-methyl-6-(3-methyl-4-(((methyl(propyl)carbamoyl)oxy)methyl)isoxazol-5-y1)pyridin-3-yl)oxy)methyl)cyclohexane-1-carboxylic acid]
IC50: < 50 nM

CCCN(C)C(=O)OCc1c(-c2ccc(OC[C@H]3CCCC[C@@H]3C(=O)O)c(C)n2)nnn1C [Compound 76, (1S,2S)-2-(((2-methyl-6-(1-methyl-5-(((methyl(propyl)carbamoyl)oxy)methyl)-1H-1,2,3-triazol-4-yl)pyridin-3-yl)oxy)methyl)cyclohexane-1-carboxylic acid]
IC50: 50 to 250 nM

Cc1noc(-c2ccc(OCC3CCCCC3C(=O)O)cc2)c1NC(=O)O[C@H](C)c1ccccc1Cl (stereo partly drawn) [Compound 77, 2-((4-(4-((((R)-1-(2-chlorophenyl)ethoxy)carbonyl)amino)-3-methylisoxazol-5-yl)phenoxy)methyl)cyclohexane-1-carboxylic acid]
IC50: < 50 nM

Cc1noc(-c2ccc(OC[C@H]3CCCC[C@@H]3C(=O)O)cn2)c1NC(=O)O[C@H](C)c1ccccc1Cl [Compound 78, (1S,2S)-2-(((6-(4-((((R)-1-(2-chlorophenyl)ethoxy)carbonyl)amino)-3-methylisoxazol-5-yl)pyridin-3-yl)oxy)methyl)cyclohexane-1-carboxylic acid]
IC50: < 50 nM

Cc1noc(-c2ccc(OCC3CCCCC3C(=O)O)cn2)c1NC(=O)O[C@H](C)c1ccccc1Cl (stereo partly drawn) [Compound 79, 2-(((6-(4-((((R)-1-(2-chlorophenyl)ethoxy)carbonyl)amino)-3-methylisoxazol-5-yl)pyridin-3-yl)oxy)methyl)cyclohexane-1-carboxylic acid]
IC50: < 50 nM

Cc1nc(-c2onc(C)c2NC(=O)O[C@H](C)c2ccccc2Cl)ccc1OC[C@H]1CCCC[C@@H]1C(=O)O [Compound 80, (1S,2S)-2-(((6-(4-((((R)-1-(2-chlorophenyl)ethoxy)carbonyl)amino)-3-methylisoxazol-5-yl)-2-methylpyridin-3-yl)oxy)methyl)cyclohexane-1-carboxylic acid]
IC50: < 50 nM
